Data: patent US20220031680A1, “Donecopride As Neuroprotective Agent In the Treatment of Neurodegenerative Diseases” (priority 2018, published 2022)

Test system: 5×FAD mice
Experiment: Novel object recognition test in 5×FAD mice
Type: in vivo, mouse
Settings: 1 mg/kg twice a week for 3 months; 24 h inter-session interval
Procedure: Animal experiments were carried out in accordance with the Directive by the Council of the European Communities of Nov. 24, 1986 (86/609/EEC). All efforts were made to minimize animal suffering and to reduce the number of mice used. The generation of 5×FAD mice was described in Oakley et al. (2006) J. Neurosci. 26:10129-10140. These transgenic mice overexpress both human APP (695) harboring the Swedish (K670N, M671L), Florida (1716V) and London (V7171) familial AD (FAD) mutations and human Presenilin 1 (PS1) harboring the two FAD mutations M146L and L286V. Expression of both transgenes is regulated by neuronal-specific elements of the mouse Thy1 promoter. The 5×FAD strain (B6/SJL genetic background) was maintained by crossing hemizygous transgenic mice with B6/SJL F1 breeders. The 5×FAD strain (C57BL/6J genetic background) was maintained by crossing hemizygous transgenic mice with C57BL/6J F1 breeders. All animals were genotyped by PCR using tail genomic DNA. Transgenic and WT mice were bred in our animal facility, had access to food and water ad libitum and were housed under a 12 h light-dark cycle at 22-24° C. Female 5×FAD mice were used in this study. For each experiment, the age of mice is indicated in months (with a two-week range).
Compounds were resuspended in DMSO (37.5 μg/μl, stored at −20° C.) and freshly diluted 1:250 in 0.9% NaCl prior administration. Vehicle solution (0.9% NaCl, 0.4% DMSO) was used as control.
5×FAD mice received chronic treatments with drugs or vehicle according to 2 different protocols. In each experiment, drugs or vehicle solution were administered i.p. twice a week (1 mg/kg). […]
The cognitive performance of mice was tested using the novel object recognition (NOR) test (Bevins and Besheer (2006) Nat. Protoc. 1:1306-1311). […] The whole experiment was video-recorded and object exploration [time spent by the mouse nose in contact with the object or by sniffing it at a distance s 1 cm] was blindly measured. […] A discrimination index was also calculated ([novel−familiar]/[familiar+novel]). […]

Row | Compound | recognition memory, exploration of novel vs familiar object (NOR)
1 | COc1cc(N)c(Cl)cc1C(=O)CCC1CCN(CC2CCCCC2)CC1 [Donecopride] | prevent memory alteration
2 | COc1cc(N)c(F)cc1C(=O)CCC1CCN(CC2CCCCC2)CC1 [Flucopride] | prevent memory alteration
